In PubChem BioAssay (NCI):
Several values for one entry are separate records, joined by “and”; a condition that tells them apart may be missing. Identical values can stand only once.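 All cell lines were grown in 96-well plates and treated with compound for 48 hours. GI50 is the concentration that inhibits growth by half. Definition used: TGI = concentration required for complete inhibition of growth.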

Assays:
Experiment in all cases: NCI tumour cell line growth inhibition, 48 h
CAKI-1 renal = tested on: CAKI-1 renal
DMS 273 small cell lung = tested on: DMS 273 small cell lung
HCT-116 colon = tested on: HCT-116 colon
HOP-92 NSCLC = tested on: HOP-92 NSCLC
KM12 colon = tested on: KM12 colon
LXFL 529 NSCLC = tested on: LXFL 529 NSCLC
MALME-3M melanoma = tested on: MALME-3M melanoma
SF-268 CNS = tested on: SF-268 CNS
SK-MEL-5 melanoma = tested on: SK-MEL-5 melanoma
DU-145 prostate = tested on: DU-145 prostate

Structure (SMILES) | TGI (CAKI-1 renal) | TGI (DMS 273 small cell lung) | TGI (HCT-116 colon) | TGI (HOP-92 NSCLC) | TGI (KM12 colon) | TGI (LXFL 529 NSCLC) | TGI (MALME-3M melanoma) | TGI (SF-268 CNS) | TGI (SK-MEL-5 melanoma) | TGI (DU-145 prostate) | GI50 (CAKI-1 renal) | GI50 (DMS 273 small cell lung) | GI50 (HCT-116 colon) | GI50 (HOP-92 NSCLC) | GI50 (KM12 colon) | GI50 (LXFL 529 NSCLC) | GI50 (MALME-3M melanoma) | GI50 (SF-268 CNS) | GI50 (SK-MEL-5 melanoma) | GI50 (DU-145 prostate)
Cc1ccc(/C=N/NS(=O)(=O)c2ccccc2)cc1C | > 100 µM | > 100 µM | > 100 µM | > 100 µM | > 100 µM | > 100 µM | > 100 µM | > 100 µM | > 100 µM |  |  |  |  |  |  |  |  |  |  | 
O=[N+]([O-])c1cc(I)cc(/C=N/NS(=O)(=O)c2ccc(Cl)cc2)c1O | 54.9 µM | 38.5 µM | 41.3 µM | 37.6 µM | 34.6 µM | 37.2 µM | 48.9 µM | 77.4 µM | 36.9 µM |  |  |  |  |  |  |  |  |  |  | 
COc1ccccc1NC(=O)CC(=O)n1nc(C)c(N=Nc2ccccc2Cl)c1C | > 100 µM | > 100 µM | > 100 µM | > 100 µM | > 100 µM | > 100 µM | > 100 µM | > 100 µM | > 100 µM | > 100 µM |  |  |  |  |  |  |  |  |  | 
C1C[OH+]CCNCC[OH+]CC[OH+]CCN1.N.[Cl-].[Pt+4] | > 100 µM | > 100 µM | > 100 µM | > 100 µM | > 100 µM | > 100 µM | > 100 µM | > 100 µM | > 100 µM |  | 29 µM | 28.7 µM | 32.9 µM | 35.8 µM | 29.5 µM | > 100 µM | > 100 µM | > 100 µM | 35.5 µM | 
O=C1NC2(CCCC2)C2CCCCC12O (centres undefined) | > 100 µM | > 100 µM | > 100 µM | > 100 µM | > 100 µM | > 100 µM | > 100 µM | > 100 µM | > 100 µM |  |  |  |  |  |  |  |  |  |  | 
COc1ccccc1NC(=O)C1=C(C)NC(C)=C(C(=O)Nc2ccccc2OC)C1c1ccccc1Cl | > 100 µM | > 100 µM | > 100 µM | > 100 µM | > 100 µM | > 100 µM | > 100 µM | > 100 µM | > 100 µM |  |  |  |  |  |  |  |  |  |  | 
COc1ccc(C[C@]23CCC(=O)N2CCc2cc(OC)c(O)cc23)cc1O | > 100 µM | > 100 µM | > 100 µM | > 100 µM | > 100 µM | > 100 µM | > 100 µM | > 100 µM | > 100 µM |  |  |  |  |  |  |  |  |  |  | 
COc1cc(/C=C2\NC(=O)C3Cc4c(OC)c(C)c(OC)c(OC)c4C2N3C)c(OC)c(C)c1OC (centres undefined) | > 100 µM | > 100 µM | > 100 µM | > 100 µM | > 100 µM | > 100 µM | > 100 µM | > 100 µM | > 100 µM |  |  |  |  |  |  |  |  |  |  | 
CC1OC(CC(=O)O)Cc2c1c(O)c1c(O)cc(-c3cc(=O)c4c(=O)c5c(c(=O)c=4c3=O)CC(CC(=O)O)OC5C)c(O)c1c2O (centres undefined) | 87.5 µM and 52.7 µM | 47 µM | 27.2 µM | 41.3 µM | > 100 µM | 22.8 µM | 29.2 µM and 38.5 µM | > 100 µM | 31.9 µM | 96.2 µM | 23.6 µM |  | 30.4 µM |  | 32.5 µM |  | 14.2 µM | 47.8 µM | 60.9 µM | 26.2 µM
O=C(O)CCSC(=O)Nc1cccc2ccccc12 | > 100 µM | > 100 µM | > 100 µM | > 100 µM | > 100 µM | > 100 µM | > 100 µM | > 100 µM | > 100 µM |  |  |  |  |  |  |  |  |  |  | 
O=C(CC1(O)C(=O)Nc2ccccc21)c1ccc(Cl)cc1Cl (centres undefined) | > 100 µM | > 100 µM | > 100 µM | > 100 µM |  | > 100 µM | > 100 µM | > 100 µM | > 100 µM |  |  |  |  |  |  |  |  |  |  | 
CCC[CH2][Sn]1([CH2]CCC)[O]CC[S]1 | 1.51 µM | 3.56 µM | 2.9 µM | 2.19 µM | 3.02 µM | 0.579 µM | 1.39 µM | 1.44 µM | 1.15 µM |  | 0.221 µM | 1.13 µM | 1.16 µM | 0.656 µM | 1.19 µM | 0.134 µM | 0.299 µM | 0.363 µM | 0.324 µM | 
